# Like-named read-outs stand apart in the source and are kept apart here.
# Tests used:
# [1] = system: 3D7-strain P. falciparum asexual parasites; experiment: P. falciparum asexual growth inhibition assay (Pf GIA); assay type: cell-based, Plasmodium falciparum; conditions: dose response confirmation; read-out: Pf asexual growth inhibition assays IC50
# In short: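 LDH readout: absorbance at 650 nm after 10 min at room temperature with lactate/APAD/NBT/diaphorase mix on thawed plates. Cultures (0.25% parasitemia, 2% hematocrit) were treated 72 h at 37°C in low-oxygen gas. Inhibition was normalised to 50 μM chloroquine and DMSO; n=3 biological replicates.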
# [2] = system: HepG2 cells; experiment: HepG2 cytotoxicity assay; conditions: for Pb ODA (this manuscript) HepG2 cytoxicity: HepG2 cytotoxicity listed with the Pb ODA data set (this manuscript); for IC50: read-out: HepG2 cytotoxicity assay IC50, dose response confirmation; for Unified cytotox: unified HepG2 value across the three screens
# In short: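 Here viability after a 48 h compound incubation (37°C, humidified 5% CO2) is measured by fluorescence and expressed as percent inhibition, with doxorubicin at 50 μM and DMSO as the bounding controls.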
# [3] = system: P. berghei ookinete development; conditions: for % inhibition, Replicate A / % inhibition, Replicate B: primary screen at 1 μM
# [4] = read-out: Pb ODA (this manuscript) IC50, P. berghei ookinete development assay, this manuscript
# [5] = read-out: Pb Ookinete development assay IC50, dose response confirmation
# [6] = read-out: Pb ODA IC50, this manuscript
SMILES,IC50 [1] [µM],Pb ODA (this manuscript) HepG2 cytoxicity [2] [µM],IC50 [2] [µM],Is compound selective in assay? Pb ODA active? [3],"% inhibition, Replicate A [3] [%]","% inhibition, Replicate B [3] [%]","IC50 [3, 4] [µM]","IC50 [3, 5] [µM]",Unified cytotox [2] [µM],"Is compound selective in assay? Pb ODA active? ([3]; 1: YES, 0: NO)","IC50 [3, 6] [µM]"
Cl.O=C(NC1CCN(CC2(c3ccc(Cl)cc3)CCCCC2)CC1)c1cc[nH]n1 [TCMDC-124828],0.066,35.89,35.9,1 (key: 1: YES; 0: NO),40.92,76.27,1.62,1.62,,,
Cc1cc(C(=O)NC2CCN(CC3(c4ccccc4)CCCCC3)CC2)on1 [TCMDC-124832],< 0.0002,,13.5,,102.69,91.64,,0.613,13.49,1 (1: YES),0.61
COc1coc(C(=O)NC2CCN(CC3(c4ccc(Cl)cc4)CCC3)CC2)c1OC [TCMDC-124835],0.107,,52.5,,73.94,84.15,,0.899,52.48,1 (1: YES),0.9
O=C(NC1CCN(CC2(c3ccccc3F)CCCC2)CC1)c1ccn[nH]1 [TCMDC-124837],0.456,41.69,41.7,1 (key: 1: YES; 0: NO),77.91,70.40,1.49,1.49,,,
Cc1ccc(C2(CN3CCC(NC(=O)c4[nH]ncc4Cl)CC3)CCCCC2)cc1 [TCMDC-124838],0.00045,27.23,27.2,1 (key: 1: YES; 0: NO),44.93,53.77,1.43,1.43,,,
Cc1ccc(C2(CN3CCC(NC(=O)c4ccn[nH]4)CC3)CCCCC2)cc1 [TCMDC-124839],0.138,43.15,43.1,1 (key: 1: YES; 0: NO),81.24,59.00,0.97,0.968,,,
COc1ccc(NS(=O)(=O)c2cc(NC(=O)Cn3ccccc3=O)ccc2N2CCCCC2)cc1 [TCMDC-124874],0.489,,100,,66.12,73.52,,1.27,100.00,1 (1: YES),1.27
CCc1c(C)nc(-n2nc(C)cc2NC(=O)C(CC)c2ccccc2)[nH]c1=O (centres unmarked) [TCMDC-124935],0.558,0.95,0.95,0 (key: 1: YES; 0: NO),47.36,55.92,8.71,8.71,,,
CCc1c(C)nc(-n2nc(C)cc2NC(=O)c2ccc(OC)cc2OC)[nH]c1=O [TCMDC-124937],0.01,10.00,10,0 (key: 1: YES; 0: NO),65.69,36.83,1.51,1.51,,,
Cc1cc(=O)[nH]c(-n2nc(C)cc2NC(=O)C2(c3ccc(Cl)cc3)CCCC2)n1 [TCMDC-124943],0.967,3.31,3.31,0 (key: 1: YES; 0: NO),55.02,44.00,1.38,1.38,,,
Cc1ccccc1-c1cc(=O)c2cc(NC(=O)c3cccs3)ccc2o1 [TCMDC-124947],0.408,,100,,33.03,54.68,,4.15,100.00,1 (1: YES),4.15
CCN(CC)c1nc(N)c2c(N)nc3c(c2c1C#N)C(=O)CN3Cc1ccccc1 [TCMDC-125024],0.038,,100,,101.60,105.52,,0.618,100.00,1 (1: YES),0.62
Cc1cc(C2NC(=O)c3ccccc3N2)c(C)n1-c1ccc2c(c1)OCO2 (centres unmarked) [TCMDC-125051],0.051,,3.47,,87.88,98.84,,0.854,3.47,0 (0: NO),0.85

# Reference: PMC6753678, “Fueling Open Innovation for Malaria Transmission-Blocking Drugs: Hundreds of Molecules Targeting Early Parasite Mosquito Stages” (Frontiers in Microbiology, 2019)
